Assay results from patent US10596094B2, “Compositions and methods for reducing skin pigmentation” (Yale University, priority 2013, dated 2020).

What was measured:
[1] = system: melanocyte-keratinocyte co-cultures; assay: Fontana-Masson silver stain for melanin in melanocyte-keratinocyte co-cultures; type: cell-based, human; settings: 50 micromolar, 72 h (FIG. 7)
Method: Primary neonatal normal human keratinocytes (NHKs) (Invitrogen, Life Technologies, Grand Island, N.Y.) were seeded at a density of 5×10^5 cells/well into 4-well collagen coated chamber slides (Fisher Scientific, Waltham, Mass.). Cells were maintained in 1 ml of serum-free keratinocyte growth medium (KGM) (Keratinocyte-SFM, Invitrogen) and incubated for 48 h in 5% CO2 incubator. The complete KGM was prepared by adding KGM Singlequots (Lonza). Darkly pigmented human neonatal epidermal melanocytes (HEM-DP) (Invitrogen) were seeded over keratinocytes at 2.5×10^5 cells/well and incubated for 24 h at 37° C. The KGM was replaced with 1 ml of melanocyte growth medium (MGM) (Invitrogen), and the co-cultures were incubated for another 48 hours. The co-cultures were treated with the inhibitors at indicated concentrations in a final volume of 20 microliter/well in triplicate for 72 h. The cells were gently washed with 1× phosphate buffered saline (PBS) and fixed in 4% Paraformaldehyde (PFA) for 20 minutes at room temperature.
Silver staining for melanin was performed according to the instructions provided with the Fontana-Masson staining kit (American MasterTech, Lodi, Calif.). Cells grown in collagen-coated chamber slides were fixed in 4% PFA and rinsed with water for 5 minutes to remove traces of PBS. Slides were then placed in ammonical silver solution followed by incubation in solutions of 0.1% gold chloride, 5% sodium thiosulfate, rinsed in running tap water to remove the staining solution, and dehydrated through 3 changes of fresh absolute alcohol. Cleared slides were rinsed through 3 changes of fresh xylene and coverslips were applied with mounting medium.

[2] = system: human melanocyte-keratinocyte co-cultures; assay: EBL/SNA lectin staining of melanocyte-keratinocyte co-cultures; type: cell-based; settings: L-cytidine 25 micromolar, 72 h, vs untreated (FIG. 5)
Method: Primary neonatal normal human keratinocytes (NHKs) (Invitrogen, Life Technologies, Grand Island, N.Y.) were seeded at a density of 5×10^5 cells/well into 4-well collagen coated chamber slides (Fisher Scientific, Waltham, Mass.). Cells were maintained in 1 ml of serum-free keratinocyte growth medium (KGM) (Keratinocyte-SFM, Invitrogen) and incubated for 48 h in 5% CO2 incubator. The complete KGM was prepared by adding KGM Singlequots (Lonza). Darkly pigmented human neonatal epidermal melanocytes (HEM-DP) (Invitrogen) were seeded over keratinocytes at 2.5×10^5 cells/well and incubated for 24 h at 37° C. The KGM was replaced with 1 ml of melanocyte growth medium (MGM) (Invitrogen), and the co-cultures were incubated for another 48 hours. The co-cultures were treated with the inhibitors at indicated concentrations in a final volume of 20 microliter/well in triplicate for 72 h. The cells were gently washed with 1× phosphate buffered saline (PBS) and fixed in 4% Paraformaldehyde (PFA) for 20 minutes at room temperature. […] The slides were air dried and mounted on cover slips and the images were captured in tiff format using fluorescence microscope (Nikon) and analyzed.

[3] = target: EBL/SNA (Sambucus nigra, UniProt Q41358); settings: Shibuya et al, 1987; Kaku et al, 2007; cited from earlier work
Sequence of EBL/SNA (Q41358 309-570 limits assumed): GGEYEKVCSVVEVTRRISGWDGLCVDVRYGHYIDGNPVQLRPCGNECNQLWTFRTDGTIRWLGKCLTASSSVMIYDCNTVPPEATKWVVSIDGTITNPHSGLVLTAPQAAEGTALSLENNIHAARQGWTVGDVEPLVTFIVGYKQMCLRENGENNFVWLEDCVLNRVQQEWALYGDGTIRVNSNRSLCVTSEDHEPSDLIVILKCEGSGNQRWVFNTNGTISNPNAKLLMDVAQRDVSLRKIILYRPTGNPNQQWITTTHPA
Sequence of EBL/SNA (Q41358 29-289 partner limits assumed): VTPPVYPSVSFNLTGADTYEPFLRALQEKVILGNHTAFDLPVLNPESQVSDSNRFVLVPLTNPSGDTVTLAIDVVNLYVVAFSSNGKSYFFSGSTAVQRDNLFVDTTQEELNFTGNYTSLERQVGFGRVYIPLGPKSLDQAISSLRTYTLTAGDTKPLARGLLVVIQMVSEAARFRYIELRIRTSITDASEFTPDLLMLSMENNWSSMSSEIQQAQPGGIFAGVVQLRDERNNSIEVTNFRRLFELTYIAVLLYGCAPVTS

[4] = system: human melanocyte-keratinocyte co-cultures; assay: Melanin assay (solubilized melanin, spectrophotometry) in melanocyte-keratinocyte co-cultures; type: cell-based; settings: for Minimal concentration for >80% inhibition of melanin content: single agents, 72 h, data from FIG. 8A
Method: Cells were plated on 24-well plates at 2×10^5 cells/well and treated with various inhibitors in triplicate. Media were replaced with fresh inhibitor-containing media every 24 h. After 72 h, cells were lysed with cell lysis buffer (Invitrogen) containing protease inhibitor cocktail and PMSF (phenylmethyl sulfonyl fluoride) and incubated for 20 minutes on ice. […] From the same samples, the supernatants were saved for measurement of dopa oxidase activity and the pellets were evaluated for melanin content.
Melanin was extracted following a previously described procedure (Ni-Komatsu, et al., 2005, Pigment Cell Res 18(6),447-453). […] The melaninextracts (100 μl) were transferred to a 96-well plate and total melanin content quantitated with a M5 Spectramax plate reader (490 nm).
Dose response curves were assessed for Bliss Additivity and synergism as described (Fitzgerald et al., 2006, Nat Chem Biol 2:458-466; Ritz, C. & Streibig, J. C. (2005) Bioassay Analysis using R. J. Statist. Software, Vol 12, Issue 5). For comparisons of melanin content and tyrosinase/dopa oxidase activity in treated vs. untreated cultures, P-values were determined by the Welch Two Sample t-test.

Molecule	melanin content (Fontana-Masson silver staining) [1]	EBL staining [2]	inhibition of EBL-mediated precipitation of glycophorin [3]	melanin content compared to untreated cultures ([4]; 50 micromolar, 72 h (FIG. 6))	Minimal concentration for >80% inhibition of melanin content [4]
Nc1ccn([C@@H]2O[C@H](CO)[C@@H](O)[C@H]2O)c(=O)n1 [cytidine]	reduced melanin content	markedly reduced	–	–	–
Neu5Ac(α2,3)Gal(β1-4)Glc [3′-SL]	reduced melanin content	–	poor inhibitor	strongest reduction of the three	30 µM
Neu5Ac(α2,6)Gal(β1-4)Glc [6′-SL]	reduced melanin content	–	strong inhibitor	–	30 µM
